Measurements taken from patent US20150025120A1, “PYRAZOLE-ALCOHOL COMPOUNDS AND PHARMACEUTICAL USE THEREOF” (JAPAN TOBACCO INC., priority 2013, published 2015).

Columns and labels:
[1] = Metabolic stability test in liver microsome (rat); assay type: in vitro ADME
tissue PDH activity = assay: Ex vivo PDH activation assay (liver and epididymal adipose tissue after oral administration); assay type: in vivo, Sprague-Dawley rats; details: 3 mg/kg, rat, mean ± standard deviation
Description: The action of test compound on tissue PDH activity was evaluated. NADH production was detected via p-iodonitrotetrazolium violet (INT)-coupled system to measure PDH activity.
Normal male Sprague-Dawley rats were randomly allocated to the vehicle group and the test compound groups. The vehicle (0.5% aqueous methylcellulose solution, 5 mL/kg) or the test compound was orally administered to the rats. At 5 or 20 hr after administration, the rats were anesthetized with an intraperitoneal injection of sodium pentobarbital (60 mg/kg), and liver slices and epididymal adipose tissues were collected.
(§1) To the liver slices were rapidly added 9 volumes of ice-cold homogenization buffer (0.25 mol/L sucrose, 5 mmol/L tris(hydroxymethyl)aminomethane hydrochloride (pH 7.5), 2 mmol/L EDTA), and the mixtures were homogenized using a Polytron homogenizer. The homogenates were centrifuged at 600×g, 4° C. for 10 min to obtain the supernatant. The supernatants (1 mL) were centrifuged at 16,000×g, 4° C. for 10 min to collect the precipitates. The precipitates were washed by resuspension in the homogenization buffer (1 mL) and centrifuged in the same manner. The precipitates were frozen with liquid nitrogen and stored at −80° C. as the liver mitochondrial fraction.
as §1, with “adipose tissues” for “liver slices”, “3” for “9”, “of an” for “of”, “buffer,” for “buffer (0.25 mol/L sucrose, 5 mmol/L tris(hydroxymethyl)aminomethane hydrochloride (pH 7.5), 2 mmol/L EDTA),”, “supernatants” for “supernatants (1 mL)”, “adipose tissue” for “liver”
The mitochondrial fractions were thawed and suspended with the sample buffer (0.25 mol/L sucrose, 20 mmol/L tris(hydroxymethyl)aminomethane hydrochloride (pH 7.5), 50 mmol/L potassium chloride, and 1 mL/L 4-(1,1,3,3-tetramethylbutyl)phenyl-polyethylene glycol (Triton X-100)). Active PDH activity (PDHa activity) and total PDH activity (PDHt activity) were measured to evaluate the PDH activity. For the measurement of the PDHt activity, equal amounts of the mitochondrial suspension and the activation buffer (0.25 mol/L sucrose, 20 mmol/L tris(hydroxymethyl)aminomethane hydrochloride (pH 7.5), 50 mmol/L potassium chloride, 1 mL/L Triton X-100, 4 mmol/L calcium chloride, 40 mmol/L magnesium chloride, 10 mmol/L sodium dichloroacetate) were mixed, and the mixtures were incubated at 37° C. for 10 min. Forty microliters of the mitochondrial suspensions diluted with a sample buffer were added to a 96-well microplate for activity measurement and blank measurement. Then 180 μL of the reaction mixture (0.056 mmol/L potassium phosphate buffer (pH 7.5), 5.6 mmol/L DL-carnitine, 2.8 mmol/L NAD, 0.22 mmol/L thiamin pyrophosphate, 0.11 mmol/L Coenzyme A, 1.1 mL/L Triton X-100, 1.1 mmol/L magnesium chloride, 1.1 g/L bovine serum albumin, 0.67 mmol/L INT, 7.2 μmol/L phenazine methosulfate, 28 mmol/L sodium oxamate) was added to each well, and then 20 μL of 50 mmol/L sodium pyruvate for activity measurement or water for blank measurement were added. The mixtures were incubated at room temperature under shading. The absorbances at 500-750 nm, which were attributable to reduction of INT, the final electron acceptor, were measured using a microplate reader over time and the changes in the absorbance were calculated. The PDH activity was calculated by subtraction of the change in absorbance of the blank well from that of the activity measurement well. The percentage of the PDHa activity to the PDHt activity was calculated and taken as an index of the PDH activation.

human PDHK2 (hPDHK2) = target: T1, human PDHK2 (hPDHK2) (Homo sapiens, UniProt Q15119); assay: Inhibitory action of PDHK2 activity in vitro (residual PDH activity after kinase reaction); assay type: biochemical
T1 construct: made in house; host or cells: Escherichia coli BL21(DE3), pET17b
Description: The inhibitory action of PDHK activity was assessed indirectly by measuring the residual PDH activity after kinase reaction in the presence of a test compound.
In the case of human PDHK2 (hPDHK2, Genbank Accession No. BC040478.1), modified hPDHK2 cDNA wherein FLAG-Tag sequence was added to the N terminus of hPDHK2 cDNA clone (pReceiver-M01/PDK2-GeneCopoeia) was prepared by PCR and cloned into a vector (pET17b-Novagen). The recombinant construct was transformed into Escherichia coli (DH5α-TOYOBO). The recombinant clones were identified, and plasmid DNA was isolated and subjected to the DNA sequence analysis. One clone which had the expected nucleic acid sequence was selected for expression work.
For expression of hPDHK2 activity, Escherichia coli strain BL21(DE3) cells (Novagen) were transformed with the pET17b vector containing modified hPDHK2 cDNA. The Escherichia coli were grown to an optical density 0.6 ([…]) at 30° C. Protein expression was induced by the addition of 500 μmol/L isopropyl-β-thiogalactopyranoside. The Escherichia coli were cultured at 30° C. for 5 hr and harvested by centrifugation. Resuspension of the Escherichia coli paste was disrupted by a microfluidizer. FLAG-Tagged protein was purified using FLAG affinity gel. The gel was washed with 20 mmol/L HEPES-NaOH, 500 mmol/L sodium chloride, 1% ethylene glycol, and 0.1% Pluronic F-68 (pH 8.0), and the binding protein was eluted with 20 mmol/L HEPES-NaOH, 100 μg/mL FLAG peptide, 500 mmol/L sodium chloride, 1% ethylene glycol, and 0.1% Pluronic F-68 (pH 8.0). The eluted fractions containing FLAG-Tagged protein were pooled, dialyzed against 20 mmol/L HEPES-NaOH, 150 mmol/L sodium chloride, 0.5 mmol/L EDTA, 1% ethylene glycol, and 0.1% Pluronic F-68 (pH 8.0), and preserved at −80° C.
0.05 U/mL PDH and 0.8 μg/mL hPDHK2 were mixed in a buffer (50 mmol/L 3-morpholinopropanesulfonic acid (pH 7.0), 20 mmol/L dipotassium hydrogen phosphate, 60 mmol/L potassium chloride, 2 mmol/L magnesium chloride, 0.4 mmol/L EDTA, and 0.2% Pluronic F-68, 2 mmol/L dithiothreitol), and the mixture was incubated at 4° C. overnight to obtain a PDH/hPDHK2 complex. The test compounds were diluted with DMSO. […] DMSO (1.5 μL) was added to control wells instead of the test compound. […] The mixture was incubated at room temperature for 90 min, and the residual PDH activity was measured. The absorbance at 340 nm before and after PDH reaction was measured using a microplate reader to detect NADH produced by the PDH reaction. The hPDHK2 inhibition rate (%) of the test compound was calculated from the formula [{(PDH activity of test compound−PDH activity of control)/PDH activity of blank−PDH activity of control)}×100].

[2] = Metabolic stability test in liver microsome (human); assay type: in vitro ADME; details: 5 μM test compound
Description: Human liver microsome (manufactured by Xenotech, H0620, final concentration (after dilution), 0.2 mg protein/mL) was suspended in 100 mM potassium phosphate buffer (pH 7.4, containing β-nicotinamide adenine dinucleotide phosphate: 1.3 mM, D-glucose-6-phosphate: 3.3 mM, magnesium chloride: 3.3 mM, glucose-6-phosphate dehydrogenase: 0.45 U/mL), and further mixed with a test compound dissolved in MeCN/DMSO (95/5) (final concentration 5 μM). The mixture was incubated at 37° C. for 10 min and 60 min, acetonitrile containing formic acid (final concentration 0.1%) was added, and the mixture was centrifuged. The test compound (unmodified) in the supernatant was measured by high performance liquid chromatography/mass spectrometry (LC/MS) (manufactured by Waters, LC: Acquity UPLC, MS:SQ Detector or TQ Detector). The residual ratio (%) was calculated from the obtained measurement value.

CC(C)(O)CCOc1cc(-c2cnn(CC(C)(C)O)c2)c2c(c1)[C@@](O)(C(F)(F)F)c1ccccc1-2 [compound (3), (9R)-2-(3-hydroxy-3-methylbutoxy)-4-[1-(2-hydroxy-2-methylpropyl)-1H-pyrazol-4-yl]-9-(trifluoromethyl)-9H-fluoren-9-ol]
stability in liver microsome (residual ratio %) ([1]; 10 min): 98.2%
stability in liver microsome (residual ratio %) ([1]; 60 min): 99.7%
PDHa activity (% PDHt activity) (tissue PDH activity; adipose tissue, 5 hr after oral administration): 58 ± 7 % PDHt activity
PDHa activity (% PDHt activity) (tissue PDH activity; adipose tissue, 20 hr after oral administration): 40 ± 3 % PDHt activity
PDHa activity (% PDHt activity) (tissue PDH activity; liver, 5 hr after oral administration): 51 ± 13 % PDHt activity
PDHa activity (% PDHt activity) (tissue PDH activity; liver, 20 hr after oral administration): 31 ± 12 % PDHt activity
IC50 (human PDHK2 (hPDHK2)): 4.6 nM
stability in liver microsome (residual ratio %) ([2]; 10 min): 96.0%
stability in liver microsome (residual ratio %) ([2]; 60 min): 85.3%
